Test results: US20250144050A1, “AMINOTHIOL-CONJUGATES, COMPOSITIONS, AND METHODS OF USE THEREOF” (THE BURLINGTON HC RESEARCH GROUP, INC., priority 2021, published 2025)
Like-named read-outs stand apart in the source and are kept apart here.

Experiments:
[1] = system: C3H/10T1/2 cells; settings: 1 milliM; before, during, and after radiation exposure; cited from earlier work
[2] = injection at 500-910 mg/m^2; cited from earlier work
[3] = some in vitro studies; cited from earlier work
[4] = mice, cited from earlier work
[5] = system: A549 NSCLC cells
Description: (§1) Trypan Blue exclusion was applied as a complementary confirmation probe for cell death.
(§2) Statistical comparisons of differences in individual dose-response metrics between individual/paired drug treatments and various cell lines were conducted using the Student's t-test, with P-values <0.05 considered significant.
(§3) Relative cell growth inhibition values for differing levels each drug alone and in combination were input into SynergyFinder to generated dose-response curves for each drug alone, to produce a dose-response matrix, to visualize the distribution of areas of differing degrees of synergism in a 2-dimension heatmap and 3-dimension volcano plot, and to calculate average and maximum synergy scores in selected human cancer cell lines. […] Synergy scores <10 means that the interaction between two drugs was likely to be antagonistic; scores from −10 to 10 means the interaction between two drugs was likely to be additive; and scores >10 means the interaction between two drugs was likely to be synergistic.

[6] = system: H1975 cells; settings: H1975, each drug alone, 48 h
Description: as §1, §2, §3

[7] = cited from earlier work
[8] = system: SKOV3 ovarian cancer cells; assay type: cell-based
Description: as §1, §2, §3

[9] = system: PC3 cells; settings: cited from earlier work
[10] = system: NCI-H460 NSCLC cells; assay type: cell-based; settings: NCI-H460; each drug alone; 48 h
Description: as §1, §2, §3

[11] = system: HMESO-1 malignant mesothelioma cells; assay type: cell-based; settings: HMESO-1; each drug alone; 48 h
Description: as §1, §2, §3

[12] = system: PPM-Mill malignant mesothelioma cells; assay type: cell-based; settings: PPM-Mill; each drug alone; 48 h
Description: as §1, §2, §3

[13] = system: TOV21G ovarian cancer cells; assay type: cell-based; settings: TOV21G, 48 h
Description: as §1, §2, §3

[14] = system: MDA-MB-231 cells; settings: cited from earlier work
[15] = system: metastatic melanoma; settings: patients with advanced malignant melanoma; cited from earlier work
[16] = system: human cancer cell lines; experiment: CyQUANT cell viability assay, 48-hour exposure, panel averages; settings: for GI50: Homo sapiens, 48 h
Description: After drug treatments, fluorescence readings from 96-well plates were obtained using the CyQUANT dye and compared to standard curves for each cell line to determine cell viability. […] Trypan blue exclusion was used to estimate cell numbers in a few pilot experiments and was thereafter applied to confirm cell death.
A series of experiments was conducted to assess the relative efficacy of 4SP65, 1LP65, and amifostine as single agents in the same human cancer cell lines. First, the effectiveness of 4SP65 was tested against 15 cancer cell lines derived from seven tissues. […] The effectiveness of 0 to ≤500 μM amifostine was tested in sets of cancer cell lines reported to have either medium, high, or no expression of alkaline phosphatase.
Trans. R Soc. Lond. […] Using cell numbers based on fluorescence measurements and standard curves [time zero, (Tz), control growth, (C), and test growth in the presence of drug at five or more concentration levels (Ti)], the percentage growth was calculated at each drug concentration level. The percentage of growth inhibition was calculated as follows:
The LC50/99 was calculated using Equation 2=−50 and Eq. 2=−99, respectively. […] For NHMECs, the relationships between drug exposure levels and fluorescence units were used to define dose-response metrics. The selectivity index (SI) values for individual drug treatments were calculated as IC50 levels in NHMECs divided by the IC50 values in cancer cell lines.

[17] = system: radiation-induced tumors; settings: WR2721 plus radiation (87% with radiation alone); cited from earlier work
[18] = 400 mg/kg; 206 cGy gamma rays; female mice; cited from earlier work
[19] = system: mouse splenocytes; settings: cited from earlier work
[20] = system: angiostatin; settings: cited from earlier work
[21] = system: Sa-NH sarcoma cells; settings: 50 mg/kg every other day for 6 days; delayed from 12 days; cited from earlier work
[22] = cited from earlier work; remark: listed apart in the source
[23] = Children; cited from earlier work
[24] = each drug alone, 48 h, gefitinib series
[25] = each drug alone, 48 h, cisplatin series

For NCCCNCCS [WR1065, 2-(3-aminopropyl)aminoethanethiol], the protection factor [1] is listed as 3.23, the peak plasma level [2] is listed as about 100 µM and the “plasma T1/2” value [2] is listed as about 0.167 h. The lowest efficacious concentration [3] was 0.4 µM, the “maximally tolerated dose (MTD)” value ([4]; i.p.) was 432 mg/kg BW and the “maximally tolerated dose (MTD)” value ([4]; p.o.) was 720 mg/kg BW.
With COc1cc2ncnc(Nc3ccc(F)c(Cl)c3)c2cc1OCCCN1CCOCC1 [gefitinib, reference compound] the LC99 [5, 24] was “ND (>25) μM”, the TGI [5, 24] was over 25 µM and the TGI ([5]; each drug alone, 48 h, gefitinib series, listed as GEF) was “ND (>25) μM”. The LC99 [6] was “ND (>25) μM”, the TGI [6] was over 25 µM and the TGI ([6]; listed as GEF) was “ND (>25) μM”. The Cmax ([7]; 250 mg daily, cancer patients, read-out: Cmax plasma concentrations) was 500 to 1000 nM, the trough levels ([7]; after 3 days of treatment) was 0.257 to 4.50 µM and the trough levels ([7]; after 8 days of treatment) was 0.282 to 6.55 µM. The elimination half-life ([7]; in vivo) was 48 h.
For CNCCCNCCCS [WR151326], the protection factor [1] is listed as 1.8.
For CC(=O)O[C@H]1C(=O)[C@@]2(C)[C@H]([C@H](OC(=O)c3ccccc3)[C@]3(O)C[C@H](OC(=O)[C@H](O)[C@@H](NC(=O)c4ccccc4)c4ccccc4)C(C)=C1C3(C)C)[C@]1(OC(C)=O)CO[C@@H]1C[C@@H]2O [paclitaxel, reference compound], the “fold lower dose than 1LP65 at the GI50 level” value ([8]; SKOV3 cells) is given as 77 fold and the GI50 [9] is given as 36.4 µM.
For N.N.[Cl][Pt][Cl] [cisplatin, reference compound], the GI50 [10] was 3.1 ± 0.1 µM, the IC50 [10] was 4 ± 0.1 µM and the LC99 [10] was “ND (>15) μM”. For the same molecule, the TGI [10] was “ND (>15) μM”, the GI50 [11] was 3 ± 0.4 µM and the IC50 [11] was 8.6 ± 1.1 µM. For the same molecule, the LC99 [11] was “ND (>15) μM”, the TGI [11] was 6.7 ± 0.7 µM and the GI50 [12] was 27.2 ± 3.4 µM. The IC50 [12] was 40.5 ± 8.1 µM, the LC99 [12] was “ND (>100) μM” and the TGI [12] was “ND (>100) μM”. The GI50 ([8]; SKOV3, each drug alone, 48 h) was 5.3 ± 0.4 µM, the IC50 ([8]; SKOV3, each drug alone, 48 h) was 6.7 ± 0.6 µM and the LC99 ([8]; SKOV3, each drug alone, 48 h) was “ND (>21) μM”. The TGI ([8]; SKOV3, each drug alone, 48 h) was “ND (>21) μM”, the “LC99, amount of each drug in combination” value ([13]; 4SP65-cisplatin combined) was 5.9 µM and the GI50 ([13]; each drug alone) was 2.2 ± 0.4 µM. For the same molecule, the IC50 ([13]; each drug alone) was 3 ± 0.3 µM, the LC99 ([13]; each drug alone) was 17.2 µM and the TGI ([13]; each drug alone) was 6.7 ± 0.3 µM. For the same molecule, the LC99 ([13]; each drug alone, listed as DDP) was 17.2 ± 5.2 µM, the “reduction in starting cell numbers” value ([5]; 6 μM cisplatin alone) was 56% and the “LC99, amount of each drug in combination” value ([5]; 4SP65-cisplatin combined, 48 h) was 7 µM. For the same molecule, the GI50 [5, 25] was 3.5 ± 0.7 µM, the IC50 [5, 25] was 4.7 ± 0.8 µM and the LC99 [5, 25] was 24.4 ± 2.6 µM. For the same molecule, the TGI [5, 25] was 8.2 ± 1.0 µM, the GI50 [14] was 22.4 µM and the partial response [15] was 10%.
For NCCCNCCSP(=O)(O)O [amifostine], the GI50 ([16]; read-out: GI50, range, four of 14 cell lines with moderate/high alkaline phosphatase expression, 48 hours) was 47 to 81 µM, the GI50 ([16]; read-out: GI50, range, seven of 14 cell lines, 48 hours) was 113 to 378 µM and the GI50 ([16]; read-out: exposure failing to induce growth inhibitory effects (GI50), three of 14 cell lines, 48 hours) was over 500 µM. For the same molecule, the “exposure without cytolytic effects (LC50/LC99)” value ([16]; any of 14 cell lines, 48 hours) was over 500 µM, the “concentration inducing TGI level effects” value ([16]; only HCC38 and PC3) was over 100 µM and the mice developing tumors [17] was 26%. For the same molecule, the “extension of total life expectancy” value [18] was 65 days, the “reduction of cyclophosphamide-induced HPRT mutations” value [19] was 8 fold and the “change of angiostatin levels” value ([20]; 200 mg/ml (instead of 50 mg/ml)) was “did not change angiostatin levels”. For the same molecule, the “increase of serum angiostatin levels” value ([20]; mouse, in vivo) was 4 fold, the “days for tumors to reach ideal size for amputation” value [21] was 13 days and the “level with no observable cytotoxicity” value ([22]; kidney (in vivo)) was > 17,000 picomol/10 (6) cells. For the same molecule, the “level with no observable cytotoxicity” value ([22]; liver (in vivo)) was > 7400 picomol/10 (6) cells, the “level with no observable cytotoxicity” value ([22]; small intestine (in vivo)) was > 3000 picomol/10 (6) cells and the “single dose with no untoward effects” value [23] was “up to 2700 mg/m2”.
